system: conscious renally hypertensive rats; test: Effect after oral administration in conscious renally hypertensive rats; assay type: in vivo, rat; details: 10 mg/kg
Method: In addition, compounds D, E, F, G, H, M and O were tested on conscious renally hypertensive rats for their effect after oral administration using methods known from the literature.

Q: CCCCc1nc2c(C)cc(N3C(=O)C(C)=C(C)C3=O)cc2n1Cc1ccc(-c2ccccc2C(=O)O)cc1 [Substance H, 4'-[[2-n-butyl-6-(2,3-dimethylmaleic acid imino)-4-methyl-benzimidazol-1-yl]-methyl]-biphenyl-2-carboxylic acid semihydrate] was tested. Which hypotensive effect did it give?
A: hypotensive effect

Q: Which hypotensive effect does the source give for CCCc1nc2c(C)cc(-c3nc4ccccc4n3C)cc2n1Cc1ccc(-c2ccccc2C(=O)O)cc1 [Substance D, 4'-[[2-n-propyl-4-methyl-6-(1-methylbenzimidazol-2-yl)-benzimidazol-1-yl]-methyl]-biphenyl-2-carboxylic acid] here?
A: hypotensive effect

Q: For CCCc1nc2c(C)cc(-c3nc4ccccc4n3C)cc2n1Cc1ccc(-c2ccccc2-c2nnn[nH]2)cc1 [Substance E, 4'-[[2-n-propyl-4-methyl-6-(1-methylbenzimidazol-2-yl)-benzimidazol-1-yl]-methyl]-2-(1H-tetrazol-5-yl)-biphenyl], which hypotensive effect is on record?
A: hypotensive effect

Q: Which hypotensive effect does the source give for CCCc1nc2c(C)cc(N3CCCCS3(=O)=O)cc2n1Cc1ccc(-c2ccccc2-c2nn[nH]n2)cc1 [Substance G, 4'-[[2-n-propyl-4-methyl-6-(butanesultam-1-yl)-benzimidazol-1-yl]-methyl]-2-(1H-tetrazol-5-yl)-biphenyl] here?
A: hypotensive effect

Q: With CCCc1nc2c(C)cc(-c3cn4cccnc4n3)cc2n1Cc1ccc(-c2ccccc2-c2nnn[nH]2)cc1 [Substance O, 4'-[(2-n-propyl-4-methyl-6-(imidazo[1,2-a]pyrimidin-2-yl)-benzimidazol-1-yl)-methyl]-2-(1H-tetrazol-5-yl)-biphenyl] as the compound, how does the hypotensive effect read?
A: hypotensive effect

Q: With Cc1cc(-c2nc3ccccc3n2C)cc2c1nc(C1CC1)n2Cc1ccc(-c2ccccc2C(=O)O)cc1 [Substance M, 4'-[(2-cyclopropyl-4-methyl-6-(1-methylbenzimidazol-2-yl)-benzimidazol-1-yl)-methyl]-biphenyl-2-carboxylic acid] as the compound, how does the hypotensive effect read?
A: hypotensive effect

Q: With CCCc1nc2c(C)cc(N3Cc4ccccc4C3=O)cc2n1Cc1ccc(-c2ccccc2-c2nnn[nH]2)cc1 [Substance F, 4'-[[2-n-propyl-4-methyl-6-(1-oxo-isoindolin-2-yl)-benzimidazol-1-yl]-methyl]-2-(1H-tetrazol-5-yl)-biphenyl] as the compound, how does the hypotensive effect read?
A: hypotensive effect
